# Reference: patent US8846719B2, “Isoxazolo-pyridine derivatives” (Roche Palo Alto LLC, priority 2007, dated 2014)
# pKi: −log10 of the molar value.
# Molecular target: human GABA A receptor α5β3γ2 (Homo sapiens (Human), UniProt P18507+P31644)
# Test: [3H]flumazenil competition binding assay, human GABA A α5β3γ2 receptors expressed in HEK293 cells
# Conditions: human receptor; displacement of [3H]flumazenil (0.5 nM); means of two determinations; read-out: hKi GABAAa5
# Method in brief: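 Competition for [3H]flumazenil binding on membranes of HEK293 cells transiently transfected with human α5β3γ2 receptors, in Krebs-tris buffer pH 7.5.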
row,SMILES,pKi
1,"Cc1onc(-c2ccccc2)c1COc1ccc(C(=O)N[C@@H]2CCCC[C@H]2O)cn1 [Example 197, N-((1R,2R)-2-Hydroxy-cyclohexyl)-6-(5-methyl-3-phenyl-isoxazol-4-ylmethoxy)-nicotinamide]",7.96
2,"COCCNC(=O)c1ccc(OCc2c(-c3ccccn3)noc2C)nc1 [Example 285, (2-Methoxy-ethyl)-6-(5-methyl-3-pyridin-2-yl-isoxazol-4-ylmethoxy)-nicotinamide]",8.96
3,"CC(C)NC(=O)c1ccc(OCc2c(-c3ccc(F)cc3)noc2C(F)(F)F)nc1 [Example 142, 6-[3-(4-Fluoro-phenyl)-5-trifluoromethyl-isoxazol-4-ylmethoxy]-N-isopropyl-nicotinamide]",7.47
4,"CNC(=O)c1ccc(OCc2c(-c3ccccn3)noc2C)nc1 [Example 279, Methyl-6-(5-methyl-3-pyridin-2-yl-isoxazol-4-ylmethoxy)-nicotinamide]",8.89
5,"O=C(NCC(F)(F)F)c1ccc(OCc2conc2-c2ccccn2)nc1 [Example 362, 6-(3-Pyridin-2-yl-isoxazol-4-ylmethoxy)-N-(2,2,2-trifluoro-ethyl)-nicotinamide]",8.10
6,"Cc1onc(-c2ccc(F)cn2)c1COc1ccc(C(=O)NCCO)cn1 [Example 295, 6-[3-(5-Fluoro-pyridin-2-yl)-5-methyl-isoxazol-4-ylmethoxy]-(2-hydroxy-ethyl)-nicotinamide]",9.40
7,"Cc1onc(-c2ccccc2)c1COc1ccc(C(=O)N2CCS(=O)(=O)CC2)cn1 [Example 55, (1,1-Dioxo-1,6-thiomorpholin-4-yl)-[6-(5-methyl-3-phenyl-isoxazol-4-ylmethoxy)-pyridin-3-yl]-methanone]",7.64
8,"Cc1onc(-c2ccccc2)c1COc1ccc(C2(O)COC2)cn1 [Example 74, 3-[6-(5-Methyl-3-phenyl-isoxazol-4-ylmethoxy)-pyridin-3-yl]-oxetan-3-ol]",7.55
9,"Cc1onc(-c2ccccc2)c1CNc1ccc(C(=O)NC2CCOCC2)cn1 [Example 166, 6-[(5-Methyl-3-phenyl-isoxazol-4-ylmethyl)-amino]-N-(tetrahydro-pyran-4-yl)-nicotinamide]",8.06
10,"Cc1cc(C(=O)NC(C)C)cnc1OCc1c(-c2ccccc2)noc1C [Example 69, N-Isopropyl-5-methyl-6-(5-methyl-3-phenyl-isoxazol-4-ylmethoxy)-nicotinamide]",8.53
11,"Cc1onc(-c2ccncc2)c1COc1ccc(C(=O)NCC(F)(F)F)cn1 [Example 146, 6-(5-Methyl-3-pyridin-4-yl-isoxazol-4-ylmethoxy)-N-(2,2,2-trifluoro-ethyl)-nicotinamide]",8.23
12,"Cc1onc(-c2ccccc2)c1COc1cc(C(=O)NC2CCOCC2)ccn1 [Example 59, 2-(5-Methyl-3-phenyl-isoxazol-4-ylmethoxy)-N-(tetrahydro-pyran-4-yl)-isonicotinamide]",7.26

# More lines, now with the values ahead:
row,pKi,SMILES
1,7.22,"Cc1onc(-c2ccccc2)c1COc1ccc(C(F)(F)F)cn1 [Example 4, 2-(5-Methyl-3-phenyl-isoxazol-4-ylmethoxy)-5-trifluoromethylpyridine]"
2,7.55,"Cc1onc(-c2cccnc2)c1COc1ccc(C(=O)NC2CCOCC2)cn1 [Example 159, 6-(5-Methyl-3-pyridin-3-yl-isoxazol-4-ylmethoxy)-N-(tetrahydro-pyran-4-yl)-nicotinamide]"
3,8.30,"Cc1onc(-c2ccccc2)c1COc1ccc(C(=O)N[C@@H]2CCC[C@@H]2O)cn1 (single isomer, unassigned) [Example 210, N-((1R,2S)-2-Hydroxy-cyclopentyl)-6-(5-methyl-3-phenyl-isoxazol-4-ylmethoxy)-nicotinamide or N-((1S,2R)-2-hydroxy-cyclopentyl)-6-(5-methyl-3-phenyl-isoxazol-4-ylmethoxy)-nicotinamide]"
4,7.75,"CSc1ccc(OCc2c(-c3ccccc3)noc2C)nc1 [Example 247, 2-(5-Methyl-3-phenyl-isoxazol-4-ylmethoxy)-5-methylsulfanyl-pyridine]"
5,7.39,"COCCNC(=O)c1ccc(OCc2conc2-c2ccc(F)cc2)nc1 [Example 336, 6-[3-(4-Fluoro-phenyl)-isoxazol-4-ylmethoxy]-N-(2-methoxy-ethyl)-nicotinamide]"
6,7.65,"O=C(N[C@@H]1CCC[C@H]1O)c1ccc(OCc2conc2-c2ccc(F)cc2)nc1 (single isomer, unassigned) [Example 332, 6-[3-(4-Fluoro-phenyl)-isoxazol-4-ylmethoxy]-N-((1R,2R)-2-hydroxy-cyclopentyl)-nicotinamide or 6-[3-(4-fluoro-phenyl)-isoxazol-4-ylmethoxy]-N-((1S,2S)-2-hydroxy-cyclopentyl)-nicotinamide]"
7,8.64,"Cc1onc(-c2ccccc2)c1COc1ccc(C(=O)NCCC(C)O)cn1 (stereo not shown) [Example 215, N-(3-Hydroxy-butyl)-6-(5-methyl-3-phenyl-isoxazol-4-ylmethoxy)-nicotinamide]"
8,7.79,"COC(=O)c1ccc(OCc2c(-c3ccc(F)cc3)noc2C)nc1 [Example 103, 6-[3-(4-Fluoro-phenyl)-5-methyl-isoxazol-4-ylmethoxy]-nicotinic acid methyl ester]"
9,7.82,"O=C(NCC(F)(F)F)c1ccc(OCc2conc2-c2ccc(Cl)cc2)nc1 [Example 342, 6-[3-(4-Chloro-phenyl)-isoxazol-4-ylmethoxy]-N-(2,2,2-trifluoro-ethyl)-nicotinamide]"
10,8.64,"Cc1onc(-c2ccc(F)cc2F)c1COc1ccc(C(=O)NC2CCOCC2)cn1 [Example 264, 6-[3-(2,4-Difluoro-phenyl)-5-methyl-isoxazol-4-ylmethoxy]-N-(tetrahydro-pyran-4-yl)-nicotinamide]"
11,8.80,"Cc1onc(-c2ccccc2)c1COc1ccc(C(=O)N[C@@H]2CCC[C@H]2O)cn1 (single isomer, unassigned) [Example 213, N-((1R,2R)-2-Hydroxy-cyclopentyl)-6-(5-methyl-3-phenyl-isoxazol-4-ylmethoxy)-nicotinamide or N-((1S,2S)-2-hydroxy-cyclopentyl)-6-(5-methyl-3-phenyl-isoxazol-4-ylmethoxy)-nicotinamide]"
12,8.66,"Cc1onc(-c2ccccc2)c1COc1ccc(C(=O)NCC(F)(F)F)cn1 [Example 12, 6-(5-Methyl-3-phenyl-isoxazol-4-ylmethoxy)-N-(2,2,2-trifluoro-ethyl)-nicotinamide]"
13,8.49,"Cc1onc(-c2cccc(F)c2)c1COc1ccc(C(=O)NCC2CC2)cn1 [Example 90, N-Cyclopropylmethyl-6-[3-(3-fluoro-phenyl)-5-methyl-isoxazol-4-ylmethoxy]-nicotinamide]"
14,8.60,"Cc1onc(-c2ccccc2)c1COc1ccc(C(=O)NC[C@@H](C)O)cn1 (racemic) [Example 14, (R,S)—N-(2-Hydroxy-propyl)-6-(5-methyl-3-phenyl-isoxazol-4-ylmethoxy)-nicotinamide]"
15,8.25,"Cc1onc(-c2ccncn2)c1COc1ccc(C(=O)NC2CC2)cn1 [Example 314, N-Cyclopropyl-6-(5-methyl-3-pyrimidin-4-yl-isoxazol-4-ylmethoxy)-nicotinamide]"
16,8.12,"Cc1onc(-c2ccc(F)cc2)c1CNc1ccc(C(=O)NCC2CC2)cn1 [Example 174, N-Cyclopropylmethyl-6-{[3-(4-fluoro-phenyl)-5-methyl-isoxazol-4-ylmethyl]-amino}-nicotinamide]"
